Among the data in a melting point compilation (Tetko et al.; mined from patent text by program, amines drawn as free bases though some values may be those of a salt) are melting point values, retold here.

One may read the melting point as the temperature of the solid-liquid transition.

As to `Cc1ccc(S(=O)(=O)OCCC2COc3cc(Cl)c(Cl)cc3O2)cc1` (stereo not given), the melting point lay in the range of 135 to 138 °C.

`CCOC(=O)COc1ccc2c(c1)C(=O)C(Br)CC2` (stereo not given) displayed a melting point of 91 to 93 °C.

In the case of `CC(=NC(C#N)=C(N)C#N)c1ccc(Cl)cc1`, the melting point was 154 to 156 °C.

With `COC1=C2C(=C(C(C)C)CC1(C)OC)C(=O)N(CSc1nnnn1-c1ccccc1)S2(=O)=O` (stereo not given), the melting point is 169 to 171 °C.

`COC1CN(c2ccc(N3C[C@H](CO)OC3=O)cc2F)C1` registered a melting point of 131 to 132 °C.

Take `CNC(=O)c1ncc2[nH]c3ccc(N)cc3c2c1C`: the melting point was in the range of 281 to 285 °C.

Compound `O=C(OCc1ccccc1)N1C[C@@H]2CN(c3ccc(N4C[C@H](CO)OC4=O)cc3)C[C@@H]2C1` had a melting point of 163 to 164 °C.

`CS(=O)(=O)CC(=O)CCc1ccccc1` yielded a melting point of 97.6 to 98.4 °C.

`[N-]=[N+]=NCC1OC(n2c(Cl)c(C=O)c3cc(Cl)c(Cl)cc32)C(O)C1O` (stereo not given) came in with a melting point of 160 to 161 °C.

Compound `Cc1c(C2CCCCC2)nn(C)c1C1CCCCC1` returned a melting point of 120 to 122 °C.

Take `CCCOc1ccccc1CCOc1ccc2c(c1)C=C(C(=O)Nc1ccc(CN(C)C3CCOCC3)cc1)CCS2(=O)=O`: the melting point lay within 161 to 162 °C.

Take `O=C(c1ccccc1Cl)c1ccccc1Nc1ncccc1[N+](=O)[O-]`: the melting point amounted to 119 °C.

Compound `Oc1ccccc1-c1nc(-c2ccccc2O)n(Cc2ccccc2)n1` returned a melting point of 166 to 168 °C.

`COC(=O)c1cc2c3cc(OC)ccc3n(C)c2s1` yielded a melting point of 124 to 125 °C.

As to `CN(Cc1ccccc1)Cc1c(-c2ccc(NC(=O)NO)cc2)sc2c1c(=O)n(-c1ccccc1)c(=O)n2Cc1c(F)cccc1F`, the melting point was 164 to 165 °C.

With `COC(=O)c1ccc(-n2ccc(C)n2)cc1C(F)(F)F`, the melting point was in the range of 59 to 61 °C.

Regarding `COC(=O)c1nccnc1NS(=O)(=O)c1cccc(Cl)c1Cl`, the melting point lay in the range of 177 to 178 °C.

For the compound `COC(=O)C1=Cc2cc(-c3ccc(N4CCOCC4)cc3)ccc2S(=O)(=O)CC1`, the melting point was 215 to 217 °C.

`CCC(C)COC(=O)Oc1ccc(-c2ccc(OC(=O)OCC(C)CC)cc2)cc1` (stereo not given) displayed a melting point of 85.5 °C.

On to `CN1C(=O)CN=C(c2ccccc2F)c2cc(NC(=O)NCCCl)ccc21`, for which the melting point was 240 °C.

On to `O=C(O)c1ccc(Cl)cc1Sc1ccc(F)cc1`, for which the melting point fell in the range of 204 to 213 °C.

Regarding `O=S(=O)(Nc1cccc(CCOCc2ccc(-c3ccc(Cl)c(Cl)c3)cc2)c1)C(F)(F)F`, the melting point is 74 to 75 °C.

As to `CC(=O)Nc1cc(C(F)(F)F)ccc1S(=O)CC#N` (stereo not given), the melting point was in the range of 149 to 151 °C.

Compound `O=C1CNC(=O)N1Cc1ccc2ccn(C3CCN(CCc4ccc(F)cc4)CC3)c2c1` returned a melting point of 156 to 157 °C.

For `CC(C)(C)OC(=O)N[C@@H]1CCCC[C@H]1OCC(=O)O` (relative stereo), the melting point lay within 205 to 207 °C.

For the compound `COC(=O)c1sc(C)cc1N1N=C2c3cc(C)sc3SCC2CC1=O` (stereo not given), the melting point was 164 to 166 °C.

`O=C(CC(=O)c1ccc(Br)cc1)c1ccc(Br)cc1` registered a melting point of 193 to 195 °C.

`CN(Cc1cc2c(=O)c(C(=O)NCc3ccc(Cl)cc3)cn(C)c2s1)C[C@@H](O)c1ccc([N+](=O)[O-])cc1` came in with a melting point of 181 to 183 °C.

As for `CC(C)(C)C(O)(COc1ccc(Cl)cc1)Cn1cncn1` (stereo not given), the melting point stood at 57 °C.

As to `CC(C)(C)CC(C)(C)Nc1nc(NC(C)(C)C(C)(C)C)nc(N2CC3CCC(CC3)C2)n1`, the melting point fell in the range of 98 to 102 °C.

`CC(C(=O)O)c1ccc(OCCNC(=O)C2Cc3ccccc3N2S(=O)(=O)c2ccc(-c3cccc(C(F)(F)F)c3)cc2)cc1` (stereo not given): the melting point was in the range of 92 to 96 °C.

In the case of `CCCN(CC)c1cc(C)nc(Oc2c(C)cc(C)cc2C)c1C`, the melting point lay in the range of 167 to 169 °C.

Compound `Cc1ccc(CC(NCc2ccc(O)cc2)c2ccccc2)cc1` (stereo not given) showed a melting point of 129 to 130 °C.

`CSC=CC(C)(C)C(=O)O` had a melting point of 49 to 51 °C.

Consider `O=C(NO)c1ccc2c(c1)CN(C(=O)c1cc3ccccc3cn1)C2`, for which the melting point lay within 208 to 210 °C.

Take `CCOC(=O)Cn1c(-c2cccc(Cl)c2)nc2cccnc21`: the melting point lay within 98 to 99.8 °C.

`OCCN(CCc1ccccc1)C(=S)NCCCc1ccncc1` had a melting point of 106 to 107 °C.

`O=C(O)CCc1ocnc1-c1ccccc1` gave a melting point of 142 to 143 °C.

The compound `C[C@@H]1CC(C)(C)C[C@@]2(C1)[C@@H](C)CC(=O)[C@]2(C)O` (relative stereo) showed a melting point of 73 to 74 °C.

For `COC(=O)C(S)CNC(=O)C(=O)NCC(S)C(=O)OC` (stereo not given), the melting point was in the range of 150 to 151 °C.

Take `COc1ccc(C(C)C)cc1CN[C@H]1[C@H]2CCN(C[C@@H]2C(=O)NC(C)C(N)=O)[C@H]1C(c1ccccc1)c1ccccc1` (stereo not given in full): the melting point lay within 243 to 245 °C.

The compound `Cc1ccc2oc(=O)c(C(=O)Oc3cc(F)ccc3F)cc2c1` returned a melting point of 155 to 159 °C.

Regarding `COC(Cc1nsc(N)n1)OC`, the melting point fell in the range of 62 to 66.5 °C.

The compound `Cc1c(Br)cc2c(c1C)OCC2c1ccc(C(C)C)cc1` (stereo not given) registered a melting point of 114 to 115 °C.

Compound `COc1ccc(C(=O)Nc2ccccc2CCCC2CCCCN2C)cc1` (stereo not given) displayed a melting point of 107 to 110 °C.

Compound `CN1Cc2c(-c3noc(CCl)n3)ncn2-c2ccc(F)cc2C1=O` showed a melting point of 245 to 247 °C.

As to `CSC(Cc1ccc2oc(Cc3nc(-c4cccc(C)c4)oc3C)cc2c1)C(=O)O` (stereo not given), the melting point is 125 to 127 °C.

Compound `CON1CCC2(CC1)C(O)=C(c1c(C)cc(C)cc1C)C(=O)N2C` yielded a melting point of 171 to 178 °C.

In turn, `COc1ccc(-n2nc(CO)cc2-c2ccc(Cl)cc2)cc1` had a melting point of 95 to 97 °C.

`O=C1CC(c2cccc(-n3ccnc3)c2)=Nc2cc(Cl)c(-c3ccc(F)cc3)cc2N1`: the melting point fell in the range of 209 to 211 °C.

`COC(=O)[C@H](Cc1ccc(OCCNC(=O)OC(C)(C)C)cc1)NC(=O)OCc1ccccc1`: the melting point was in the range of 89 to 91 °C.

As to `CC(C)(C)c1ccc(OCCOc2ccccc2N)c(N)c1`, the melting point was 148 to 150 °C.

In the case of `COc1c(C)c(N2CCN(c3ccc4c(c3)OC(F)(F)O4)CC2)c(C)c2c1OC(C)(C)C2`, the melting point lay in the range of 149 to 151 °C.

The compound `CC(C)Oc1ccc(-c2ccc3oc(C4CCN(C(=O)OC(C)(C)C)CC4)nc3c2)cc1F` had a melting point of 124 to 128 °C.

For the compound `C1=C(CCc2c[nH]c3ccccc23)CCNC1`, the melting point was 155 °C.

For `CC1C[C@H]2[C@@H](O1)[C@@H](O)C(=O)N2Cc1ccccc1` (relative stereo), the melting point was in the range of 98 to 101 °C.

As to `CCOC(=O)C(=O)Nc1cc(C(F)(F)F)cc(C(F)(F)F)c1[N+](=O)[O-]`, the melting point stood at 115 °C.

As for `CC1(C)OC[C@@H](COn2cnc3c(Cl)nc(N)nc32)O1`, the melting point was 118 to 120 °C.

`C=CCOC(=O)c1ccc(S(C)=O)c([N+](=O)[O-])c1` (stereo not given) came in with a melting point of 119 to 121 °C.

Take `ClC1(CBr)C=CC=CN1` (stereo not given): the melting point lay within 40 to 43 °C.

In turn, `COc1cccc(CCCC(=O)O)c1OC` had a melting point of 58 to 59 °C.

`Nc1c([N+](=O)[O-])sc2ccc(Br)cc12` registered a melting point of 282 to 284 °C.

With `CCCN1C(=O)CC(C)(C)c2cc(C)c(-c3cc(C=C4SC(=O)NC4=O)ccc3N(C)C)cc21`, the melting point was 258 to 260 °C.

Take `Cc1cc(C)c(N2C(=N)N(c3c(C)cccc3C)CC2C)c(C)c1` (stereo not given): the melting point is 128 to 130 °C.

The compound `N#CCc1cccc(CBr)c1[N+](=O)[O-]` came in with a melting point of 71 to 73 °C.

`CC(C)(C)OC(=O)N1CCC(C2=C(C#N)C(c3cccc4nonc34)c3c[nH]nc3N2)CC1` (stereo not given) gave a melting point of 226 °C.

With `NS(=O)(=O)c1ccc(N2CCN(Cc3cn4ccccc4n3)CC2)cc1`, the melting point lay within 238 to 242 °C.

Take `Cn1c(-c2ccc(Cl)cc2)cc2cc(C(=O)O)ccc21`: the melting point is above 260 °C.

`CCOC(=O)C(C(=O)OCC)=C(SCc1ccc(OC)cc1)SCc1ccc(OC)cc1` showed a melting point of 57 to 59 °C.

`CCOC(=O)CCN(Cc1ccc(OC)c(OC)c1)C(=O)CN(C)C(=O)Cc1ccc(NC(=O)Nc2ccccc2C)c(OC)c1` showed a melting point of 97 to 105 °C.

The compound `CC1C(=O)Nc2c(C(=O)c3ccc(Br)cc3)cccc21` (stereo not given) gave a melting point of 245 to 247 °C.

With `CC(=O)c1ccc(Cl)c(S(=O)(=O)Nc2ccccc2)c1`, the melting point turned out to be 142 °C.

`O=c1[nH]c2cc(N3CCCC3)c(F)cc2c(=O)n1O`: the melting point was above 250 °C.

In the case of `CC(=O)Nc1cccc(OCC(O)CNCCOc2ccc(C(N)=O)cc2)c1` (stereo not given), the melting point was 164 to 165 °C.

The compound `NCc1c(Cc2ccccc2)nc2ccc(OCC(N)=O)cc2c1-c1ccccc1` yielded a melting point of 180 to 182 °C.

The compound `COC(=O)C(=C/c1ccccc1)/C(=C\c1cc(OC)c(OC)c(OC)c1)C(=O)O` had a melting point of 131 to 133 °C.

On to `CCc1cc(N)c(C(=O)OC)c(CC)n1`, for which the melting point amounted to 75 °C.

On to `CN1C(=O)Cc2cc(Cl)ccc21`, for which the melting point is 118 to 119 °C.

As for `Oc1c(Cc2ccccc2)nc(Cc2ccccc2)c2c1COC2`, the melting point was in the range of 204 to 205 °C.

In the case of `NCCCCNC(=O)C1(NC(=O)CCCC(=O)O)Cc2ccccc2C1`, the melting point amounted to 132 °C.

`COC(CC(=O)c1cccc(Br)c1)C(=O)O` (stereo not given): the melting point was 82.5 to 83.5 °C.

As to `CC(=O)SCC(CC(C)C)C(=O)Nc1cc(C)cc(C(=O)O)c1` (stereo not given), the melting point lay in the range of 185 to 187 °C.

The compound `Cc1ccccc1[PH](=O)c1ccccc1C` gave a melting point of 91.3 °C.

Regarding `CON(C)C(=O)c1cc2c(s1)CCCC2`, the melting point is 36 to 37 °C.

`CCOC(=O)C1=C(NC(=O)Nc2ccc([N+](=O)[O-])c(C(=O)OCC)c2)CCC1` returned a melting point of 152 to 155 °C.

On to `Cc1c(Sc2ccc(Cl)cc2)c2cc(S(C)(=O)=O)ccc2n1CC(=O)O`, for which the melting point fell in the range of 185 to 187 °C.

Regarding `CNC(=O)C(C)Oc1ncn(-c2ccc(Br)cc2)n1` (stereo not given), the melting point is 176 to 178 °C.

`COCc1cccc(Cl)c1NC(=O)CC1c2ccccc2Oc2ccccc21` yielded a melting point of 184 to 185 °C.

As to `CNC(=O)NN(CC(=O)OC)c1cccc(I)c1`, the melting point was 150 °C.

`CC(C)c1c(C(=O)c2cccnc2)c2ccccc2n1C` returned a melting point of 114 °C.
